molecular target: PPAR-alpha (Mesocricetus auratus); experiment: Effective concentration against hamster PPAR-alpha in Gal4 transactivation assay

EC50 [nM] | Structure (SMILES)
402 | CCC1(C(=O)O)Cc2cc(OCCCOc3ccc(OCC(F)(F)F)cc3Cl)ccc2O1 (centres undefined) [5-{3-[2-Chloro-4-(2,2,2-trifluoro-ethoxy)-phenoxy]-propoxy}-2-ethyl-2,3-dihydro-benzofuran-2-carboxylic acid]
370 | CC(C)[C@@]1(C(=O)O)Cc2cc(OCCOc3ccc(OC(F)(F)F)cc3Cl)ccc2O1 [(R)-5-[2-(2-Chloro-4-trifluoromethoxy-phenoxy)-ethoxy]-2-isopropyl-2,3-dihydro-benzofuran-2-carboxylic acid]
280 | CCC1(C(=O)O)Cc2cc(OCCCOc3ccc(C(C)(C)C)cc3Cl)ccc2O1 (centres undefined) [5-[3-(4-tert-Butyl-2-chloro-phenoxy)-propoxy]-2-ethyl-2,3-dihydro-benzofuran-2-carboxylic acid]
420 | CC(C)[C@@]1(C(=O)O)Cc2cc(OCCCOc3cc(C(F)(F)F)ccc3Cl)ccc2O1 [(R)-5-[3-(2-Chloro-5-trifluoromethyl-phenoxy)-propoxy]-2-isopropyl-2,3-dihydro-benzofuran-2-carboxylic acid]
